Holding throughout (type): functional
The target of assay [1] is T1, Cdk-related protein kinase 6 (Plasmodium falciparum, UniProt O77239).
T1 sequence (O77239 whole entry): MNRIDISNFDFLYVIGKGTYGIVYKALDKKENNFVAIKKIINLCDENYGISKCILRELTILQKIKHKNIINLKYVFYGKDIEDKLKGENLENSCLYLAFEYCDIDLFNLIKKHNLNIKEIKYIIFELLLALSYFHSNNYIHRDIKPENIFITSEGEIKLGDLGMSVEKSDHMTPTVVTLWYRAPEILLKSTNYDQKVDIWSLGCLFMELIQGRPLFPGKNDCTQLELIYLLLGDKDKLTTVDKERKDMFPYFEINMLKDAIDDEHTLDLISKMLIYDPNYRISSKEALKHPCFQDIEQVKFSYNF
Kind of assay: Final concentrations were 1.5 uM ATP, 5 mM MnCl2, and 15 ug/ml PK6 in a buffer of 100 mM Tris-HCl (pH 7.5). 50 ug/mL MBP was provided as the substrate; 10 uM staurosporine was used as a control inhibitor. Incubation time was 3 hours and 40 minutes.The catalytic activity of each kinase was considered proportional to ATP consumed, as determined from measurements of residual [ATP] with the luciferase-based reagent Kinase-Glo (Promega) following incubation. Luminescence (proportional to residual [ATP]) was measured on the plate readers FLx800 (BioTek Instruments, Winooski, VT, USA) and MicroBeta2.

The target of assay [2] is T2, Putative uncharacterized protein pk7 (Plasmodium falciparum, UniProt O96214).
T2 sequence (O96214 whole entry): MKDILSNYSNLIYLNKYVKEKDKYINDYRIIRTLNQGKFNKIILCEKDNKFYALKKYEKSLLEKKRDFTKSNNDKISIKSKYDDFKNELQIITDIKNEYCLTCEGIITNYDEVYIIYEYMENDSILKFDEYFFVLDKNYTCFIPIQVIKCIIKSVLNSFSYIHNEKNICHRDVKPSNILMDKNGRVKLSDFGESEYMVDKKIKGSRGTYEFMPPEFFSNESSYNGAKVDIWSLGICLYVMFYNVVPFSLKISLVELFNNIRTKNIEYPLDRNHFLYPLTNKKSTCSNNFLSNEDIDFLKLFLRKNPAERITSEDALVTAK
Kind of assay: Final concentrations were 1 uM ATP, 2 mM DTT, 20 mM MgCl2, 2 mM MnCl2, 0.01% BSA, and 6 ug/ml PK7, in a buffer of 20 mM Tris-HCl (pH 7.5). The enzyme itself was the only substrate present (since autophosphorylation occurs); 100 uM 1NA-PP1 was used as a control inhibitor. Incubation time was 3 hours.

Assay [3] addresses T3, Mitogen-activated protein kinase (Plasmodium falciparum, UniProt Q25917).
T3 sequence (Q25917 whole entry): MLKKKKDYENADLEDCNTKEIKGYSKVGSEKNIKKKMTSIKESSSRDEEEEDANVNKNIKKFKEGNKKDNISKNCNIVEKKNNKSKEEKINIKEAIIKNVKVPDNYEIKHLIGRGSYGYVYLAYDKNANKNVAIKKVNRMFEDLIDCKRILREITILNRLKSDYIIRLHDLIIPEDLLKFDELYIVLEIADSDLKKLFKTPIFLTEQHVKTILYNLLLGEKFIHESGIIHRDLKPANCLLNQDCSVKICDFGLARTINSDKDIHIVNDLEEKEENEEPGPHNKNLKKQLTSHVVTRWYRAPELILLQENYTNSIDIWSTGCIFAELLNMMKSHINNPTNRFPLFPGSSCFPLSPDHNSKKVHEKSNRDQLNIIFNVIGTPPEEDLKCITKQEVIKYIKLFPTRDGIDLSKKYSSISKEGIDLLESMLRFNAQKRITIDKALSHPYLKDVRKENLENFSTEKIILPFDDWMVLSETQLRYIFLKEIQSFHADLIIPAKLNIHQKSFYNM
Kind of assay: Final concentrations were 1 uM ATP, 0.5 mM DTT, 1 mM MgCl2, 0.5 mg/mL BSA, and 10 ug/ml MAP2 in a buffer of 50 mM HEPES (pH 7.0). 0.5 mg/mL histone III-S served as the substrate (13); 100 uM AMP-PNP, an ATP analog, was used as a control inhibitor. Incubation time was 4 hours.

Assay [4] has as its target Calcium-dependent protein kinase 1 (Plasmodium falciparum, UniProt P62344). Kind of assay: MMV: CDPK1 Protein kinase inhibition assay using recombinant PfCDPK1, syntide 2 peptide substrate, ATP and KinaseGlo to measure % inhibition at 1 uM MMV box compound.
The target in assay [5] is T4, Calcium-dependent protein kinase 4 (Plasmodium falciparum (isolate 3D7), UniProt Q8IBS5).
T4 sequence (Q8IBS5 whole entry): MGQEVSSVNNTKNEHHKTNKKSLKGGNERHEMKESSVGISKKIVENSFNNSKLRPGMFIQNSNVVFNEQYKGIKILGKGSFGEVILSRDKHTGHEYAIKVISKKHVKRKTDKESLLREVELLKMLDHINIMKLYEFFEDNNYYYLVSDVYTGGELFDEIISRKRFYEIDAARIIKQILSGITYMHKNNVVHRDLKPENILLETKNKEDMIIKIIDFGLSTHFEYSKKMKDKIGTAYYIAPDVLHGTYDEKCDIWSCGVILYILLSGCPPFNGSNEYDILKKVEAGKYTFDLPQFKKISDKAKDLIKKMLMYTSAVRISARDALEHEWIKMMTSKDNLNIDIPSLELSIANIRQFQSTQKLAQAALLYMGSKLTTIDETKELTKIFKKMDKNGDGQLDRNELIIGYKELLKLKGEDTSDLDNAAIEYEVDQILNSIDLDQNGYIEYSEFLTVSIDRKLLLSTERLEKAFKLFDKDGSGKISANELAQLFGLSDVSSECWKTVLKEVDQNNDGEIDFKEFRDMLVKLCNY
Kind of assay: MMV: CDPK4 Protein kinase inhibition assay using recombinant PfCDPK4, syntide2 peptide substrate, ATP and KinaseGlo to measure % inhibition at 1 uM MMV box compound.

Another assay concerns the target T5, Proline--tRNA ligase (Plasmodium falciparum (isolate 3D7), UniProt Q8I5R7).
T5 sequence (Q8I5R7 whole entry): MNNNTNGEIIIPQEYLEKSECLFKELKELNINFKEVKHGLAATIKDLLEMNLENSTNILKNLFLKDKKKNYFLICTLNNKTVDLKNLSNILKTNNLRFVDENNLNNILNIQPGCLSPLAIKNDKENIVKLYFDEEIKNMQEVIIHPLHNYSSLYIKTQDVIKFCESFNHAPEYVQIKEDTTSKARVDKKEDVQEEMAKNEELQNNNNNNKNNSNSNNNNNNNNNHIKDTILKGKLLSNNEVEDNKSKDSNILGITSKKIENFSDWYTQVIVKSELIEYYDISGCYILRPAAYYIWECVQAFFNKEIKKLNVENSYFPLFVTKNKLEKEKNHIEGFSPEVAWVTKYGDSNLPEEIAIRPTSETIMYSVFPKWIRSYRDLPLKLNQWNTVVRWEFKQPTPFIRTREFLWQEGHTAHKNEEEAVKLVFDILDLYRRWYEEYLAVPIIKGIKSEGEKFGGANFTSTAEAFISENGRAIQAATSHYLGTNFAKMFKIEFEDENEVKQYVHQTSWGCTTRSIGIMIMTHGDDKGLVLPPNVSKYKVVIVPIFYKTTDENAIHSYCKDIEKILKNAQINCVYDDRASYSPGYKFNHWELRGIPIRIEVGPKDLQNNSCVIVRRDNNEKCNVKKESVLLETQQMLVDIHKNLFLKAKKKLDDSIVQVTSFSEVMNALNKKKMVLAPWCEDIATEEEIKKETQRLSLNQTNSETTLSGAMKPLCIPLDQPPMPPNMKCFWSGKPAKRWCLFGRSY
Kind of assay: MMV: ProRS recombinant Plasmodium falciparum Prolyl-tRNA-synthetase, assay with yeast tRNA, ATP, and proline and 3 uM MMV malaria box compound, assay read out with kinase glo as % inhibition.

In the next assay the target is Lysine--tRNA ligase (Plasmodium falciparum (isolate 3D7), UniProt Q8IDJ8). Kind of assay: MMV: KRS recombinant Plasmodium falciparum Lysyl-tRNA-synthetase, assay with yeast tRNA, ATP, and lysine and 3 uM MMV malaria box compound, assay read out with kinase glo as % inhibition. For orientation: Kinase-Glo reads ATP consumption through a luciferase reaction.

This note sets out measurements from ChEMBL document CHEMBL3301562, “MMV Box screening against Plasmodium falciparum protein kinases and aminoacyl tRNA synthetases”.

Calcium-dependent protein kinase 1, sequence (P62344 whole entry): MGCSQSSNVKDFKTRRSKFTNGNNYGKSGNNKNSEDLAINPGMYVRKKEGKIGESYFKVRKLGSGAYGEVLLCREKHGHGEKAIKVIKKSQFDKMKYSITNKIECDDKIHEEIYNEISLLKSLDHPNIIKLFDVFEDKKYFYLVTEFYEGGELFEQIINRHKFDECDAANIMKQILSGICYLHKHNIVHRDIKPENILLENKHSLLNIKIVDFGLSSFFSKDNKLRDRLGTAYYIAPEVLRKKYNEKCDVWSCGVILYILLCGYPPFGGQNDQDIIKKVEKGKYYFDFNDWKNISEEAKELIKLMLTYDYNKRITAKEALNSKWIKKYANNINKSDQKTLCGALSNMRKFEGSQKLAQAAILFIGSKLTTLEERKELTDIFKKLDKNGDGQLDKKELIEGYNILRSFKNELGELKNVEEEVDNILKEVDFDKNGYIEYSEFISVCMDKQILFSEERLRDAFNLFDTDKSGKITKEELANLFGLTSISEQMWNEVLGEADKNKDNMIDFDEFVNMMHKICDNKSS
Lysine--tRNA ligase, sequence (Q8IDJ8 whole entry): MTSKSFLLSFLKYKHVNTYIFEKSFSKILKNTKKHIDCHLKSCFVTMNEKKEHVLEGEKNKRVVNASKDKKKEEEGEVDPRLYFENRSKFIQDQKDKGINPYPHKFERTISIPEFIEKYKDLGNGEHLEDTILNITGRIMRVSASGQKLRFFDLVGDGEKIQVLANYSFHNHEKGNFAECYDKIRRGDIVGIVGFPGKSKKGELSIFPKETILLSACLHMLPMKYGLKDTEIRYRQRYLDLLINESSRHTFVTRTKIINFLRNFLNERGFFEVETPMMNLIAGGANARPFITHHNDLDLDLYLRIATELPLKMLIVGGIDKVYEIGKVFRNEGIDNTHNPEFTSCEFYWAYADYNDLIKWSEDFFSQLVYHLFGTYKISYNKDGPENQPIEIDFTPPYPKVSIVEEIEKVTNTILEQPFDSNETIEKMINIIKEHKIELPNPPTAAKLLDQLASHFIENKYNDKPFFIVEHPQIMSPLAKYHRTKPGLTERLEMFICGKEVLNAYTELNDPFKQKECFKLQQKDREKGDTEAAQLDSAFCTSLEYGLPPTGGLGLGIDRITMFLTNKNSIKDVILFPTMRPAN

Regarding `O=C(NCC(c1ccsc1)N1CCCCCC1)c1ccc(C(F)(F)F)cc1` (stereo not drawn), the IC50 in assay [1] was over 1000 nM; in assay [2], over 1000 nM; in assay [3], over 1000 nM; in assay [4], over 1000 nM; in assay [5], over 1000 nM; on Proline--tRNA ligase, over 2500 nM. Moreover, on Lysine--tRNA ligase, the IC50 was over 2500 nM.

Regarding `CCCCCC(=O)N1c2ccccc2N=C2CC(c3ccc(OC)c(OC)c3)CC(O)=C2C1c1ccc(C(F)(F)F)cc1` (stereo not drawn), the IC50 in assay [1] is over 1000 nM; in assay [2], over 1000 nM; in assay [3], over 1000 nM; in assay [4] it was over 1000 nM; in assay [5], over 1000 nM; at Proline--tRNA ligase, over 2500 nM. The half-maximal inhibitory concentration (IC50) on Lysine--tRNA ligase is over 2500 nM.

Regarding `Cc1cc(NCCN2CCCCC2)c2ccc3ccccc3c2n1`, the IC50 in assay [1] is over 1000 nM; in assay [2], over 1000 nM; in assay [3] it was over 1000 nM; in assay [4], over 1000 nM; in assay [5], over 1000 nM; on Proline--tRNA ligase, over 2500 nM. In addition, the IC50 at Lysine--tRNA ligase is over 2500 nM.

For `COc1ccc(-c2nc(NC(=O)CS(=O)(=O)c3ccc(F)cc3)sc2C)cc1`, the IC50 in assay [1] is over 1000 nM; in assay [2] it was over 1000 nM; in assay [3], over 1000 nM; in assay [4], over 1000 nM; in assay [5], over 1000 nM; on Proline--tRNA ligase, over 2500 nM. Also, the 50% inhibitory concentration (IC50) at Lysine--tRNA ligase was over 2500 nM.

Regarding `CCOC(=O)c1cn(CC)c2cc(N(C)CCc3ccc(OC)c(OC)c3)c(F)cc2c1=O`, the IC50 was over 1000 nM in assay [1]; over 1000 nM in assay [2]; over 1000 nM in assay [3]; over 1000 nM in assay [4]; over 1000 nM in assay [5]; over 2500 nM on Proline--tRNA ligase. The IC50 at Lysine--tRNA ligase was over 2500 nM.

For the compound `O=[N+]([O-])c1ccc(C=NNc2nc3ccccc3[nH]2)cc1`, the IC50 in assay [1] is over 1000 nM; in assay [2], over 1000 nM; in assay [3], over 1000 nM; in assay [4] it was over 1000 nM; in assay [5] it was over 1000 nM; at Proline--tRNA ligase, over 2500 nM. For the same compound, the half-inhibitory concentration (IC50) on Lysine--tRNA ligase is over 2500 nM.

As for `Cc1cc(Nc2ccc(C)c(Cl)c2)n2nc(C(F)(F)F)nc2n1`, the IC50 is over 1000 nM in assay [1]; over 1000 nM in assay [2]; over 1000 nM in assay [3]; over 1000 nM in assay [4]; over 1000 nM in assay [5]; over 2500 nM at Proline--tRNA ligase. In addition, the IC50 at Lysine--tRNA ligase was over 2500 nM.

For the compound `Fc1ccc2[nH]c3c(NCCCN4CCOCC4)ncnc3c2c1`, the IC50 was over 1000 nM in assay [1]; over 1000 nM in assay [2]; over 1000 nM in assay [3]; over 1000 nM in assay [4]; over 1000 nM in assay [5]; over 2500 nM on Proline--tRNA ligase. Also, on Lysine--tRNA ligase, the IC50 is over 2500 nM.

As for `CCn1c(CN2CCN(Cc3ccccc3)CC2)nc2cc(NC(=O)c3cccs3)ccc21`, the IC50 in assay [1] was over 1000 nM; in assay [2], over 1000 nM; in assay [3], over 1000 nM; in assay [4], over 1000 nM; in assay [5], over 1000 nM; at Proline--tRNA ligase, over 2500 nM. The IC50 on Lysine--tRNA ligase is over 2500 nM.

As for `CC1CCN(Cc2ccc(NC(=O)c3cc4ccc5cccnc5c4[nH]3)cc2)CC1`, the IC50 in assay [1] is over 1000 nM; in assay [2] it was over 1000 nM; in assay [3], over 1000 nM; in assay [4], over 1000 nM; in assay [5] it was over 1000 nM; at Proline--tRNA ligase, over 2500 nM. Moreover, at Lysine--tRNA ligase, the IC50 is over 2500 nM.

For the compound `CCc1ccc(Nc2cc(C)c3ccc(O)cc3n2)cc1`, the 50% inhibitory concentration (IC50) in assay [1] was over 1000 nM; in assay [2] it was over 1000 nM; in assay [3], over 1000 nM; in assay [4], over 1000 nM; in assay [5] it was over 1000 nM; on Proline--tRNA ligase, over 2500 nM. The 50% inhibitory concentration (IC50) at Lysine--tRNA ligase is over 2500 nM.

For `CSc1ccccc1C(=O)Nc1nc(-c2ccccn2)cs1`, the half-maximal inhibitory concentration (IC50) in assay [1] is over 1000 nM; in assay [2] it was over 1000 nM; in assay [3], over 1000 nM; in assay [4], over 1000 nM; in assay [5], over 1000 nM; on Proline--tRNA ligase, over 2500 nM. The IC50 at Lysine--tRNA ligase is over 2500 nM.

Turning to `COc1ccc(C(C)=O)cc1N1C(=O)C2C(C1=O)C1(c3ccccc3)C(=O)C2(c2ccccc2)C(c2ccc(C)cc2)=C1c1ccc(C)cc1` (stereo not drawn), the concentration for half-maximal inhibition (IC50) was over 1000 nM in assay [1]; over 1000 nM in assay [2]; over 1000 nM in assay [3]; over 1000 nM in assay [4]; over 1000 nM in assay [5]; over 2500 nM on Proline--tRNA ligase. Further, the IC50 at Lysine--tRNA ligase was over 2500 nM.

As to `CCCc1c(CC)c(=N)c2ccccc2n1C`, the 50% inhibitory concentration (IC50) in assay [1] was over 1000 nM; in assay [2], over 1000 nM; in assay [3], over 1000 nM; in assay [4] it was over 1000 nM; in assay [5] it was over 1000 nM; on Proline--tRNA ligase, over 2500 nM. Further, the IC50 on Lysine--tRNA ligase is over 2500 nM.

Usually IC50 stands for the concentration at which inhibition is half-maximal.
